Results as given in PubChem BioAssay (NCI).
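How tested: cells in 96-well plates exposed to compound for 48 hours at five concentrations. GI50 = concentration required for 50% inhibition of growth. The concentration for full growth arrest is given as TGI.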

Key:
Test in all cases: NCI anticancer screen, dose series, 48 h
NCI-H226 lung = test system: NCI-H226 lung
NCI-H460 lung = test system: NCI-H460 lung
NCI-H522 lung = test system: NCI-H522 lung
NCI/ADR-RES ovarian = test system: NCI/ADR-RES ovarian
OVCAR-3 ovarian = test system: OVCAR-3 ovarian
OVCAR-4 ovarian = test system: OVCAR-4 ovarian
OVCAR-5 ovarian = test system: OVCAR-5 ovarian
OVCAR-8 ovarian = test system: OVCAR-8 ovarian
PC-3 prostate = test system: PC-3 prostate
RPMI-8226 leukemia = test system: RPMI-8226 leukemia
RXF 393 renal = test system: RXF 393 renal
SF-268 CNS = test system: SF-268 CNS
SF-295 CNS = test system: SF-295 CNS
SF-539 CNS = test system: SF-539 CNS
SK-MEL-2 melanoma = test system: SK-MEL-2 melanoma
SK-MEL-28 melanoma = test system: SK-MEL-28 melanoma
SK-MEL-5 melanoma = test system: SK-MEL-5 melanoma
SK-OV-3 ovarian = test system: SK-OV-3 ovarian
SN12C renal = test system: SN12C renal
SNB-19 CNS = test system: SNB-19 CNS
SNB-75 CNS = test system: SNB-75 CNS
SR leukemia = test system: SR leukemia
SW-620 colon = test system: SW-620 colon
T-47D breast = test system: T-47D breast
TK-10 renal = test system: TK-10 renal
U251 CNS = test system: U251 CNS
UACC-257 melanoma = test system: UACC-257 melanoma
UACC-62 melanoma = test system: UACC-62 melanoma
UO-31 renal = test system: UO-31 renal

SMILES: O=C1Nc2cc(Cl)ccc2/C1=C\c1ccc(OCc2ccc(Br)cc2F)cc1
- TGI (NCI-H226 lung): 6.89 µM
- GI50 (NCI-H460 lung): 0.459 µM
- TGI (NCI-H460 lung): 1.7 µM
- GI50 (NCI-H522 lung): 1.8 µM
- TGI (NCI-H522 lung): 4.33 µM
- GI50 (NCI/ADR-RES ovarian): 2.31 µM
- TGI (NCI/ADR-RES ovarian): 6 µM
- GI50 (OVCAR-3 ovarian): 2.08 µM
- TGI (OVCAR-3 ovarian): 4.72 µM
- GI50 (OVCAR-4 ovarian): 1.84 µM
- TGI (OVCAR-4 ovarian): 3.71 µM
- GI50 (OVCAR-5 ovarian): 4.16 µM
- TGI (OVCAR-5 ovarian): > 100 µM
- GI50 (OVCAR-8 ovarian): 2.46 µM
- TGI (OVCAR-8 ovarian): 6.89 µM
- GI50 (PC-3 prostate): 1.7 µM
- TGI (PC-3 prostate): 3.49 µM
- GI50 (RPMI-8226 leukemia): 3.71 µM
- TGI (RPMI-8226 leukemia): > 100 µM
- GI50 (RXF 393 renal): 1.65 µM
- TGI (RXF 393 renal): 3.2 µM
- GI50 (SF-268 CNS): 2.29 µM
- TGI (SF-268 CNS): 6.34 µM
- GI50 (SF-295 CNS): 1.89 µM
- TGI (SF-295 CNS): 3.5 µM
- GI50 (SF-539 CNS): 1.66 µM
- TGI (SF-539 CNS): 3.18 µM
- GI50 (SK-MEL-2 melanoma): 2.97 µM
- TGI (SK-MEL-2 melanoma): 9.98 µM
- GI50 (SK-MEL-28 melanoma): 2.84 µM
- TGI (SK-MEL-28 melanoma): 8.37 µM
- GI50 (SK-MEL-5 melanoma): 5.53 µM
- TGI (SK-MEL-5 melanoma): 82.4 µM
- GI50 (SK-OV-3 ovarian): 1.69 µM
- TGI (SK-OV-3 ovarian): 3.33 µM
- GI50 (SN12C renal): 1.86 µM
- TGI (SN12C renal): 4.09 µM
- GI50 (SNB-19 CNS): 1.92 µM
- TGI (SNB-19 CNS): 4.29 µM
- GI50 (SNB-75 CNS): 1.81 µM
- TGI (SNB-75 CNS): 3.39 µM
- GI50 (SR leukemia): 2.59 µM
- TGI (SR leukemia): 8.18 µM
- GI50 (SW-620 colon): 1.9 µM
- TGI (SW-620 colon): 4.56 µM
- GI50 (T-47D breast): 2.3 µM
- TGI (T-47D breast): 6.6 µM
- GI50 (TK-10 renal): 2.51 µM
- TGI (TK-10 renal): 4.59 µM
- GI50 (U251 CNS): 1.69 µM
- TGI (U251 CNS): 3.21 µM
- GI50 (UACC-257 melanoma): 3.3 µM
- TGI (UACC-257 melanoma): 18.4 µM
- GI50 (UACC-62 melanoma): 1.68 µM
- TGI (UACC-62 melanoma): 3.35 µM
- GI50 (UO-31 renal): 1.49 µM
- TGI (UO-31 renal): 4.75 µM
